According to ChEMBL document CHEMBL1131646, “Synthesis of some hydroxynaphthazarins and their cardioprotective effects under ischemia-reperfusion in vivo” (Bioorg Med Chem Lett, 1998):

Legend:
[1] = organism: Oryctolagus cuniculus; test: Myocardial infarction (MI) size was calculated as a percentage of the infarct area to the total area of the left ventricle of male chinchilla rabbits; assay type: functional, Heart left ventricle; design: concentration or dose not given beside the values
[2] = Lethal dose to produce acute toxicity was evaluated in white crossbred mice weighing 20-25 g; conditions: mouse, in vivo

| Compound | Activity [1] | LD50 [2] |
| --- | --- | --- |
| O=[N+]([O-])OCC(CO[N+](=O)[O-])O[N+](=O)[O-] [NITROGLYCERIN] | 15.23% | – |
| CCCC1=C(O)C(=O)c2c(O)c(O)c(O)c(O)c2C1=O | 10.08% | 80 mg/kg |
| CCC1=C(O)C(=O)c2c(O)c(O)c(O)c(O)c2C1=O [ECHINOCHROME A] | 7.76% | 87 mg/kg |
| Cc1c(O)c(O)c2c(c1O)C(=O)C(SCCO)=C(SCCO)C2=O | 9.97% | 150 mg/kg |
| CC(C)(C)C1=CC(=O)c2c(O)c(O)c(O)c(O)c2C1=O | 10.18% | 170 mg/kg |
| O=C(O)CCC1=C(O)C(=O)c2c(O)c(O)c(O)c(O)c2C1=O | 7.9% | 95 mg/kg |
| Cc1c(O)c(O)c2c(c1O)C(=O)C(SC[C@H](NC(=O)CC[C@H](N)C(=O)O)C(=O)NCC(=O)O)=C(SC[C@H](NC(=O)CC[C@H](N)C(=O)O)C(=O)NCC(=O)O)C2=O | 7.15% | 1350 mg/kg |
| COc1ccc(CCN(C)CCCC(C#N)(c2ccc(OC)c(OC)c2)C(C)C)cc1OC (stereo not drawn) [VERAPAMIL] | 6.51% | – |
| N[C@@H](CCC(=O)N[C@@H](CSC1=C(SC[C@H](NC(=O)CC[C@H](N)C(=O)O)C(=O)NCC(=O)O)C(=O)c2c(O)c(O)c(O)c(O)c2C1=O)C(=O)NCC(=O)O)C(=O)O | 12.37% | 1210 mg/kg |
| CCc1c(O)c(O)c2c(c1O)C(=O)C(SC[C@H](NC(=O)CC[C@H](N)C(=O)O)C(=O)NCC(=O)O)=C(SC[C@H](NC(=O)CC[C@H](N)C(=O)O)C(=O)NCC(=O)O)C2=O | 8.35% | 1480 mg/kg |
